From publication PMC7849180 (Frontiers in Pharmacology, 2020) come the findings set out here.

Data set [1] can be described thus: Bone marrow micronucleus test. In kind it is in vivo, NIH mice. As to conditions: 122, 244, 488 mg/kg oral gavage, 4 days. The text has this: Suzhou Zelgen Biopharmaceuticals Co., Ltd. Jaktinib Hydrochloride Tablets Chemical Drug Class 1 New Drug chromosomal structural aberrations in CHL cells. Therefore, the results of the chromosomal aberration test were negative.
Mouse Bone Marrow Micronucleus Test
A mouse bone marrow micronucleus test of ZG0128 has been performed. After multiple doses of ZG0128 are given to mice via oral gavage, the incidence of micronucleated polychromatic erythrocytes in the bone marrow is observed to estimate the damage to chromosomal integrity in bone marrow cells and subsequent abnormality of chromosome segregation, so as to determine the presence of genotoxicity. The results […]
once a day for 4 consecutive days, neither damage to the chromosomal integrity in bone marrow cells nor abnormal chromosome segregation was observed. Therefore, the results of the micronucleus test were negative.
A Toxicity Test on Fertility and Early Embryo Development in Wistar Rats Administered ZG0128 by Oral Gavage
A toxicity test on the fertility and early embryo development in Wistar rats given ZG0128 by oral gavage was completed. In this test, female and male rats were given a continuous dose of ZG0128 prior to mating until embryo implantation to observe the toxicity or interference of ZG0128 on the fertility and early embryo development in […]
groups of 18, 36, and 72 mg/kg of ZG0128. […]

The next data set concerns CYP1A2. It counts as in vitro ADME, human. As to conditions: 0.10, 1.00, 10.0 μM. The text has this:
Suzhou Zelgen Biopharmaceuticals Co., Ltd. Jaktinib Hydrochloride Tablets Chemical Drug Class 1 New Drug […]
metabolite formed in human liver microsomes was the morpholine ring-opening metabolite M3. The enzyme phenotype involved in the oxidation of ZG0128 to form M3 was identified with reaction phenotyping assay using chemical inhibition and human recombinant CYP450 enzymes.
Using UPLC/Q-TOF MS, the amount of ZG0128 and primary alcohol metabolite formed by morpholine ring-opening (M3) in human liver microsomes and different incubation systems for human recombinant enzymes, including CYP1A2, CYP2A6, […]
inhibitor 1-ABT, CYP3A inhibitor ketoconazole, and CYP2C8 inhibitor quercetin can […]
for human liver microsomes and inhibit the formation of M3. […]
primary enzyme that produced M3 while CYP1A2, 2D6 and 2C9 were also partly involved. Results from the reaction phenotyping assay using chemical inhibition and […]
microsomes was a morpholine ring-opening metabolite catalyzed mainly by CYP3A4 […]
Inhibition and Induction of ZG0128 on CYP-P450s
The inhibition and induction potentials of ZG0128 on CYP-P450s were evaluated using mixed human liver microsomes and human primary hepatocytes as the in vitro […]
hydroxylation), and CYP3A4 (testosterone 6β-hydroxylation), with an IC50 greater than […]. […]

The nature of data set [2]: Metabolic stability in liver microsomes. In kind it is in vitro ADME, human. The method, then:
The metabolic stability of ZG0128 (the dihydrochloride monohydrate of ZG0163) was evaluated using human, monkey, dog, rat, and mouse liver microsomes as the in vitro models. The percentages of residues for ZG0128 after incubating in human, monkey, dog, rat, and mouse liver microsomes for 60 minutes was 55.5%, 63.1%, 67.1%, 80.3%, and 79.0%, respectively. The CLint values of in vivo clearance were calculated to be 24.1, 21.6, 33.4, 10.7, 26.0 mL/min/kg, respectively. Thus its was speculated that ZG0128 was a medium clearance drug in humans, monkeys, and mice, a high clearance drug in dogs, and a low clearance drug in rats.
Using UPLC-UV/Q-TOF MS, the potential metabolites of ZG0128 in various liver microsomes (human, monkey, dog, rat and mouse liver microsomes) incubation systems were identified and the metabolic pathways of ZG0128 were speculated. The main metabolite of ZG0128 in above five types of liver microsomes were primary alcohol metabolite formed by morpholine ring-opening (M3). […]
For orientation: Liver microsomes are vesicles of endoplasmic reticulum, rich in cytochrome P450 enzymes.

Data set [3] can be described thus: Plasma pharmacokinetics, single ascending dose (SAD). The note with it: for Cmax, geometric mean (CV%) / Tmax, median (min–max): fasting. In kind it is in vivo, human. The method, then:
In SAD part, volunteers were designed into eight SAD cohorts (25, 50, 100, 150, 200, 250, 300 and 400 mg). Among these cohorts, 25 mg was bisected by the 50 mg specification under good manufacturing practices (GMP) condition and provided the certificate of analysis. […] Jaktinib or placebo was administrated after an overnight fast.
For MAD cohorts, blood samples were collected at 0, 0.25, 0.5, 1, 1.5, 2, 3, 4, 5, 6, 8 and 12 h on day 1; 0 h on day 2, 3, 4, 6 and 7; 0, 0.25, 0.5, 1, 1.5, 2, 3, 4, 5, 6, 8, 12, 24, 36 and 48 h on day 10. In food effect cohort, blood samples were collected at 0, 0.25, 0.5, 1, 1.5, 2, 3, 4, 5, 6, 8, 12, 24, 36, 48, 72, 96 and 120 h in period one of group A; 0, 0.25, 0.5, 1, 1.5, 2, 3, 4, 5, 6, 8, 12, 24, 36 and 48 h in period two of group A and the two periods of group B. Blood samples were centrifuged at 3,000 rpm for 10 min at 2–8 °C and stored at -80 °C until liquid chromatography-mass spectrophotometry (LC-MS/MS) analysis. Urine and feces samples were collected in period one of group A of food effect cohort with the intervals 0, 0–6, 6–12, 12–24, 24–48, 48–72, 72–96, 96–120 and 0–120 h, respectively. […]

Setting [4] is: 25–400 mg, linear mixed effects model.

As for `Cl.Cl.O.[2H]C1([2H])COCC([2H])([2H])N1c1ccc(Nc2nccc(-c3ccc(C(=O)NCC#N)cc3)n2)cc1` [ZG0128, Jaktinib Dihydrochloride Monohydrate], in data set [1], the micronucleus test result is “negative”. Also, in the data set with CYP1A2, the in vitro induction result is “no in vitro induction”. Moreover, in data set [2], the “CLint of in vivo clearance” value was determined as 24.1 mL/min/kg and the “percentage of residue after 60 minutes” value came to 55.5%.

On to Jaktinib, for which the “slope (90% CI) for ln AUC0-∞ vs dose” value in data set [3] (setting [4]) is 1.15 (0.96–1.34). Moreover, the “slope (90% CI) for ln Cmax vs dose” value in data set [3] (setting [4]) was 1.00 (0.86–1.15). Further, the “Cmax, geometric mean (CV%)” value in data set [3] (single 25 mg dose) is 34.50 (51.6) ng/ml; in data set [3] (single 50 mg dose) it was 77.56 (72.8) ng/ml; in data set [3] (single 100 mg dose), 183.48 (33.3) ng/ml; in data set [3] (single 150 mg dose) it was 297.18 (36.6) ng/ml; in data set [3] (single 200 mg dose), 354.52 (44.6) ng/ml; in data set [3] (single 250 mg dose) it was 404.20 (36.9) ng/ml. For the same molecule, the figures for the “Cmax, geometric mean (CV%)” value in data set [3] (single 300 mg dose) and in data set [3] (single 400 mg dose) were 510.54 (35.4) ng/ml and 579.35 (42.6) ng/ml, respectively. Moreover, the “Tmax, median (min–max)” value in data set [3] (single 25 mg dose) is listed as 2.00 (1.00–4.00) h; in data set [3] (single 50 mg dose) it was 3.00 (0.50–5.00) h; in data set [3] (single 100 mg dose), 1.25 (0.50–3.00) h; in data set [3] (single 150 mg dose), 2.50 (1.50–4.00) h; in data set [3] (single 200 mg dose) it was 2.50 (1.00–3.00) h; in data set [3] (single 250 mg dose), 2.00 (1.00–4.00) h. Moreover, the “Tmax, median (min–max)” value in data set [3] (single 300 mg dose) was 3.00 (0.50–5.00) h; in data set [3] (single 400 mg dose) it was 3.50 (2.00–5.00) h. Also, in data set [3] (single dose 25–400 mg), the “CL/F, range across cohorts” value was 76.212 to 150.190 L/h. Besides, the “Vz/F, range across cohorts” value in data set [3] (single dose 25–400 mg) was in the range of 533.561 to 1033.554 L. The “median Tmax, range across cohorts” value in data set [3] (single dose 25–400 mg jaktinib) was in the range of 1.25 to 3.5 h. For the same molecule, the “t1/2, range across cohorts” value in data set [3] (single dose 25–400 mg jaktinib) lay in the range of 2.952 to 9.040 h.
